US20210052608A1, “METHODS OF TREATING BACTERIAL INFECTIONS WITH MINOCYCLINE” (Melinta Therapeutics, Inc., priority 2018, published 2021)
“Also recorded” adds a separate entry of the source.

Key:
[1] = Plasma pharmacokinetics of minocycline, single ascending dose (SAD) phase, 1 hour intravenous infusion; parameters: species or system human (healthy adult subjects); details: human, in vivo; for half-life: mean, N=8
Description: (§1) This example describes outcomes among healthy adult subjects in a randomized, double-blind, placebo-controlled, single- and multiple ascending dose (SAD/MAD) study of 6 intravenous doses (cohorts) ranging from 100 mg to 600 mg of minocycline. […] Within each cohort, subjects received a single dose on Day 1, followed by a loading dose on Day 4, then 7 days of twice-daily dosing (Days 4-10), followed by a single dose on Day 11 as shown in Table 1. Within each cohort, subjects were randomly assigned to minocycline (n=8) or normal saline placebo (n=2). Serial blood and urine samples were collected for pharmacokinetic assessment. All infusions were administered over 1 hour. Plasma samples were obtained at 1 (end-of-infusion), 2, 4, 8, 12, 18, 24, 36, 48, and 72 hours after the start of dosing after single or multiple doses and assayed for minocycline content using a validated HPLC/MS method. Concentration of minocycline in healthy volunteers after a one hour IV infusion is shown in FIG. 1, while concentration of minocycline in healthy volunteers after a loading dose then twice daily dosing for seven days is shown in FIG. 2.

[2] = Plasma pharmacokinetics of minocycline, twice-daily ascending dose (MAD) phase, loading dose then BID dosing for 7 days; parameters: species or system human (healthy adult subjects); details: human, in vivo; for AUC(0-t): AUC0-t; for clearance: Cl (plasma clearance); for Vd: Vss (volume of distribution at steady state); for half-life: mean; for Cmax: iv
Description: as §1

[3] = Safety and tolerability (adverse events) in the SAD/MAD study of intravenous minocycline; type: in vivo, human (healthy adult subjects)
Description: This example describes outcomes among healthy adult subjects in a randomized, double-blind, placebo-controlled, single- and multiple ascending dose (SAD/MAD) study of 6 intravenous doses (cohorts) ranging from 100 mg to 600 mg of minocycline. Each cohort consisted of 10 subjects (8 active drug and 2 placebo). Within each cohort, subjects received a single dose on Day 1, followed by a loading dose on Day 4, then 7 days of twice-daily dosing (Days 4-10), followed by a single dose on Day 11 as shown in Table 1. Within each cohort, subjects were randomly assigned to minocycline (n=8) or normal saline placebo (n=2). Serial blood and urine samples were collected for pharmacokinetic assessment.
Safety was assessed throughout the study. Of the adverse events (AE) observed in more than 10% of subjects, the vast majority were assessed by the investigator as likely to be related to study drug (Table 5). A total of 21 subjects out of 57 discontinued the trial. Six of 10 subjects in cohort 4 discontinued during the MAD portion (400 mg BID) of the trial due to mild to moderate dizziness. Dosing was discontinued in the remaining 4 subjects in that cohort and cohorts 5 and 6 were limited to 300 mg BID for the MAD portion of the trial. Four subjects in cohort 6 (600 mg/300 mg) discontinued due to nausea.

[4] = Plasma pharmacokinetics of minocycline, single ascending dose (SAD) phase, 1 hour intravenous infusion; parameters: species or system human (healthy adult subjects); details: human, in vivo; single 600 mg IV dose, mean, N=9

CN(C)c1ccc(O)c2c1C[C@H]1C[C@H]3[C@H](N(C)C)C(O)=C(C(N)=O)C(=O)[C@@]3(O)C(O)=C1C2=O [minocycline]
Dose proportionality of exposure ([1]; iv): increased in a dose proportional fashion with exception of the 500 mg dose
AUC(0-inf) ([1]; iv, 100 mg): 9730 ng·h/mL
clearance ([1]; iv, 100 mg): 175 mL/min
AUC(0-inf) ([1]; iv, 200 mg): 25900 ng·h/mL
clearance ([1]; iv, 200 mg): 137 mL/min
AUC(0-inf) ([1]; iv, 300 mg): 39200 ng·h/mL
clearance ([1]; iv, 300 mg): 138 mL/min
AUC(0-inf) ([1]; iv, 400 mg): 63600 ng·h/mL
clearance ([1]; iv, 400 mg): 112 mL/min
AUC(0-inf) ([1]; iv, 500 mg): 53800 ng·h/mL
clearance ([1]; iv, 500 mg): 171 mL/min
AUC(0-inf) ([1]; iv, 600 mg): 83000 ng·h/mL
clearance ([1]; iv, 600 mg): 135 mL/min
half-life ([1]; single 100 mg IV dose): 11.1 h
half-life ([1]; single 200 mg IV dose): 13.7 h
half-life ([1]; single 300 mg IV dose): 16.6 h
half-life ([1]; single 400 mg IV dose): 17.6 h
half-life ([1]; single 500 mg IV dose): 14.4 h
AUC(0-t) ([2]; 100 mg): 27500 ng·h/mL
clearance ([2]; 100 mg): 58.2 mL/min
Vd ([2]; 100 mg): 72 L
half-life ([2]; 100 mg, single dose 100 mg, BID dosing 100 mg, N=6): 15.9 h
AUC(0-t) ([2]; 200 mg): 80700 ng·h/mL
clearance ([2]; 200 mg): 41.3 mL/min
Vd ([2]; 200 mg): 58.4 L
half-life ([2]; 200 mg, single dose 200 mg, BID dosing 200 mg, N=6): 18.2 h
AUC(0-t) ([2]; 300 mg): 174000 ng·h/mL
clearance ([2]; 300 mg): 32 mL/min
Vd ([2]; 300 mg): 47 L
half-life ([2]; 300 mg, single dose 300 mg, BID dosing 300 mg, N=7): 19.8 h
half-life ([2]; 300 mg, single dose 500 mg, BID dosing 300 mg, N=7): 18.1 h
half-life ([2]; 300 mg, single dose 600 mg, BID dosing 300 mg, N=4): 20.2 h
half-life ([2]; 300 mg, single dose 300, 500, or 600 mg (pooled), BID dosing 300 mg, N=18): 19.2 h
clearance [2]: 44 mL/min
Vd [2]: 58.1 L
Cmax ([2]; 100 mg): 1710 ng/mL
Cmax ([2]; 200 mg): 4590 ng/mL
Cmax ([2]; 300 mg): 8910 ng/mL
Maximum tolerated multi-dose ([3]; administered twice daily, IV): 300 mg
Subjects discontinued due to nausea in cohort 6 ([3]; cohort 6 (600 mg/300 mg)): Four
Subjects reporting study drug related adverse events, % ([3]; human, in vivo): 79.9%
Subjects who discontinued the trial, total ([3]; human, in vivo): 21
Subjects with dizziness, % ([3]; human, in vivo): 59.4%
Subjects with dizziness, number ([3]; human, in vivo): 41
Subjects with moderate nausea and/or dizziness, number ([3]; human, in vivo): 9
Subjects with nausea, % ([3]; human, in vivo): 50.7%
Subjects with nausea, number ([3]; human, in vivo): 35
Subjects discontinued from study drug in the 400 mg cohort (cohort 4) ([3]; human, in vivo, 7 days): 6
Tolerability of single intravenous doses ([3]; single IV doses up to 600 mg): tolerated reasonably well
Serious adverse events ([3]; whole SAD/MAD study, 100 mg to 600 mg IV): No serious adverse events occurred; also recorded: No serious adverse events (SAEs) were reported
Most common adverse effects ([3]; whole study): mild nausea and dizziness
half-life [4]: 17.3 h
